Literature values as cited in patent US20080311054A1, “Compositions and Methods to Counteract Oral Malodour” (GIVAUDAN SA, priority 2005, published 2008).

Test system: microorganisms such as yeasts
Settings: WO 99/51093

CCCCCCCCO [octanol]
effect (killing microorganisms such as yeasts): no effect
